Like-named read-outs stand apart in the source and are kept apart here.
Experiment: MARISA ranolazine plasma concentration
Format: in vivo
Conditions: human, oral; for concentration at 4 h: read-out: Ranolazine Plasma Concentration, Peak, mean (SD); for concentration at 12 h: read-out: Ranolazine Plasma Concentration, Trough, mean (SD)
Method: Methods: Patients withdrawn from other anti-anginal drugs with reproducible angina-limited exercise duration and ≧1 mm ST depression were randomized to Ran (500 mg bid, 1000 mg bit and 1500 mg bid) and matching placebo (Pbo) in a double-blind, four-period, Latin square crossover design. Exercise testing with a modified Bruce protocol was performed at both trough (12 hr after dosing) and peak (4 hr after dosing). Results: 49 centers in the USA, Czech Republic, Poland and Canada randomized 191 patients. 168 completed all 4 double-blind treatment periods; 7 more completed 3 of 4 periods.
Results: Ran improved exercise duration times in comparison to the placebo.

- concentration at 4 h (500 mg BID): 1120 ng/mL
- concentration at 12 h (500 mg BID): 846 ng/mL
- concentration at 4 h (1000 mg BID): 2460 ng/mL
- concentration at 12 h (1000 mg BID): 1950 ng/mL
- concentration at 4 h (1500 mg BID): 3940 ng/mL
- concentration at 12 h (1500 mg BID): 3270 ng/mL
SMILES: COc1ccccc1OCC(O)CN1CCN(CC(=O)Nc2c(C)cccc2C)CC1 (racemic) [Ranolazine, (±)-N-(2,6-dimethylphenyl)-4-[2-hydroxy-3-(2-methoxyphenoxy)propyl]-1-piperazine-acetamide]

Source: patent publication US20020052377A1, “Method for treating angina” (priority 2000, published 2002)
